In series [1] the test system is NC/Nga mice (models for atopic dermatitis). Kind of series: Test Example 4: anti-atopic dermatitis test, NC/Nga mice, picryl chloride hapten challenge. Type of series: in vivo. As to the method: Next, test was conducted on the anti-atopic dermatitis effect of the yeast cell wall fraction. As a test specimen, NC/Nga mice (5.5 weeks old) were preliminarily raised for 2 weeks with solid foodstuff (CE-2, manufactured by Clea Japan, Inc.) and, after adaptation to the experimental environment, were used upon being separated into groups of 7 mice each. […] Hapten sensitization was conducted 1 week after the commencement of test foodstuff administration, and the initial (first) hapten challenge was conducted a week thereafter, and a hapten challenge was conducted for each elapsed week thereafter, and the final (eighth) hapten challenge was conducted […] after the commencement of test foodstuff administration. […] In the aforementioned anti-atopic dermatitis test, the clinical score and total plasma IgE level were measured with time. […] The clinical score was comprehensively evaluated in […] evaluation phases of score (0)none, (1)mild, (2)moderate, (3)severe, regarding the 5 symptoms of acomia of scalp; bleeding and erosion of scalp; bleeding and erosion of auricle portion; corpulence, edema, and purpura of auricle portion; and deformation and disappearance of auricle porition. […]

For series [2], the system named is NC/Nga mice (model for delayed-type hypersensitivity). As to the kind of experiment: Test Example 5: inhibition effect of delayed-type hypersensitivity, NC/Nga mice. Type of series: in vivo. The protocol:
The same test mice and test foodstuff as in Test Example 4 were used to conduct a test on the inhibition effect of delayed-type hypersensitivity. The NC/Nga mice, as described above, are known as a model for atopic dermatitis, but can also be used as a model for delayed-type hypersensitivity. The administration of test foodstuff to the test mice was continued until the end of the test. Hapten sensitization was conducted 1 week after the commencement of the foodstuff administration, hapten challenge was conducted 1 week thereafter upon measuring the thickening of the auricle portion prior to the challenge, and measurement of the thickening of the auricle portion 24 hours later was conducted once again. Hapten sensitization was conducted by applying picryl chloride 7% by weight ethanol solution 100 μl to the abdomen, and the hapten challenge was conducted by applying picryl chloride 1% by weight olive oil solution 10 μl to both faces of each auricle portion. The anti-inflammation effect was measured by seeking the edema ratio and tumidity from the aforementioned test results. […]

[3] abbreviates: after the completion of administration of the test foodstuff.

For `OC[C@H]1O[C@H](OC[C@H]2O[C@H](O[C@]3(CO)O[C@H](CO)[C@@H](O)[C@@H]3O)[C@H](O)[C@@H](O)[C@@H]2O)[C@H](O)[C@@H](O)[C@H]1O` [Raffinose], the “Final Weight, Mean” value is 25.9 g in series [1] (setting [3]) and 24.2 g in series [2] (setting [3]). In addition, the Ingestion, Mean in series [1] (daily foodstuff ingestion amount, anti-atopic dermatitis test) was found to be 4.05 g/day; in series [2] (daily foodstuff ingestion amount, delayed-type hypersensitivity test), 4.2 g/day.

The record behind these values is patent publication US20020155126A1, “Pharmacological composition containing yeast cell wall fraction” (priority 2001, published 2002).
